Measured values from patent US12343352B2, “N-(phenylsulfonyl)benzamides and related compounds as Bcl-2 inhibitors” (ASCENTAGE PHARMA (SUZHOU) CO., LTD., priority 2019, dated 2025).

Columns and labels:
[1] = Steady state pharmacokinetics in patients following multiple oral doses; format: in vivo; conditions: human, plasma, multiple oral doses of 400 mg once daily; for AUC(0-t): read-out: AUC(0-24 h); for half-life: read-out: T½ (converted)
CYP enzymes = assay: Comparative metabolism studies: metabolizing CYP enzymes and CYP inhibition/induction (liver microsome assays); format: in vitro ADME
Experimental: (§1) Metabolism studies of Compound 1 and Compound Z were evaluated in both mouse and dog liver microsome assays.

[2] = Mouse liver microsome assay / metabolites in mouse plasma; format: in vitro ADME
Experimental: as §1

[3] = Dog liver microsome assay / metabolites in dog plasma; format: in vitro ADME
Experimental: as §1

[4] = Pharmacokinetic properties of Compound 1 compared with Compound Z (systemic exposure and tumor tissues); format: in vivo; conditions: versus Compound Z
[5] = Metabolites in human plasma; format: in vivo

Row | SMILES | Cmax [1] [ng/mL] | Tmax [1] [h] | AUC(0-t) [1] [ng·h/mL] | half-life [1] [h] | inhibition or induction of major CYP enzymes (CYP enzymes) | mainly metabolized by (CYP enzymes) (CYP enzymes; mouse, dog, microsomes) | major metabolite (>10%) in mouse plasma ([2]; mouse liver microsome assay) | metabolites found in dog plasma [3] | Cmax in systemic exposure relative to Compound Z ([4]; systemic exposure) | half-life in systemic exposure relative to Compound Z ([4]; systemic exposure) | Cmax in tumor tissues relative to Compound Z ([4]; tumor tissues) | half-life in tumor tissues relative to Compound Z ([4]; tumor tissues) | mainly metabolized by (CYP enzymes) (CYP enzymes; mouse and dog liver microsome assays) | other metabolites found in mouse plasma ([2]; mouse plasma) | major metabolite (>10%) in human plasma [5]
1 | O=C(NS(=O)(=O)c1ccc(NC[C@H]2COCCO2)c([N+](=O)[O-])c1)c1ccc(N2CCN(CC3=C(c4ccc(Cl)cc4)CC4(CCC4)CC3)CC2)cc1Oc1cnc2[nH]ccc2c1 [Compound 1, (S)-N-((4-(((1,4-dioxan-2-yl)methyl)amino)-3-nitrophenyl)sulfonyl)-2-((1H-pyrrolo[2,3-b]pyridin-5-yl)oxy)-4-(4-((6-(4-chlorophenyl)spiro[3.5]non-6-en-7-yl)methyl)piperazin-1-yl)benzamide] | 970 | 6 | 9960 | 4.43 | not found to inhibit or induce any major CYP enzymes | CYP3A4 and CYP2C8 | amide bond hydrolysis M2 | minor oxidation metabolites | higher | shorter | higher | similar | – | – | –
2 | CC1(C)CCC(CN2CCN(c3ccc(C(=O)NS(=O)(=O)c4ccc(NCC5CCOCC5)c([N+](=O)[O-])c4)c(Oc4cnc5[nH]ccc5c4)c3)CC2)=C(c2ccc(Cl)cc2)C1 [Compound Z, Venetoclax, reference compound] | 2180 | 7 | 35500 | 26 | – | – | – | minor oxidation metabolites | – | – | – | – | CYP3A4 and CYP3A5 | minor oxidation metabolites | oxidative metabolite M27
